How the values were obtained:
Assay type in all cases: in vivo
[1] = system: soybean (Glycine max L., var. Pella 86, SOY); assay: Post-emerge greenhouse test, crop damage rating; details: 14 days after application
Method in brief: (§1)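 Scores use a 0 (no damage) to 100 (complete kill) scale, taken 14 days after a foliar spray. Acetone solutions with 0.25% v/v non-ionic surfactant were applied by track sprayer at 187 l/ha and 63-1000 g ai/ha to bottom-watered 2-3 leaf plants.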

[2] = system: sicklepod (Cassia obtusifolia, CASOB); assay: Post-emerge greenhouse herbicide test, phytotoxicity rating; details: 14 days after application
Method in brief: as §1

[3] = system: Johnsongrass (Sorghum halepense, SORHA); assay: as above; details: 14 days after application
Method in brief: as §1

[4] = system: lambsquarters (Chenopodium album, CHEAL); assay: as above; details: 14 days after application
Method in brief: as §1

[5] = system: barnyardgrass (Echinochloa crusgalli, ECHCG); assay: as above; details: 14 days after application
Method in brief: as §1

[6] = system: green foxtail (Setaria viridis, SETVI); assay: as above; details: 14 days after application
Method in brief: as §1

[7] = system: velvetleaf (Abutilon theophrasti, ABUTH); assay: as above; details: 14 days after application
Method in brief: as §1

[8] = system: redroot pigweed (Amaranthus retroflexus, AMARE); assay: as above; details: 14 days after application
Method in brief: as §1

[9] = system: ivyleaf morningglory (Ipomoea hederacea, IPOHE); assay: as above; details: 14 days after application
Method in brief: as §1

[10] = system: large crabgrass (Digitaria sanguinalis, DIGSA); assay: as above; details: 14 days after application
Method in brief: as §1

[11] = system: common ragweed (Ambrosia artemisiifolia L., AMBEL); assay: as above; details: 14 days after application
Method in brief: as §1

[12] = system: upland rice (Oryza sp., var.Tebonnet, RICE); assay: Post-emerge greenhouse test, crop damage rating; details: 14 days after application
Method in brief: as §1

[13] = system: field corn (Zea mays L., var. Dekalb 535, CORN); assay: Post-emerge greenhouse test, crop damage rating; details: 14 days after application
Method in brief: as §1

[14] = system: sicklepod (Cassia obtusifolia, CASOB); assay: Pre-emerge greenhouse herbicide test, phytotoxicity rating; details: 14 days after application, rating scale 0-100
Method in brief: (§2)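 Visual 0–100 injury rating (100 = all plants dead) taken 14 days after treatment. Rates of 125–1000 g ai/ha in acetone, 187 l/ha, were sprayed onto soil one day post-sowing; pots were surface-watered to incorporate, then bottom-watered.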

[15] = system: common ragweed (Ambrosia artemisiifolia L., AMBEL); assay: as above; details: 14 days after application, rating scale 0-100
Method in brief: as §2

[16] = system: Johnsongrass (Sorghum halepense, SORHA); assay: as above; details: 14 days after application, rating scale 0-100
Method in brief: as §2

[17] = system: lambsquarters (Chenopodium album, CHEAL); assay: as above; details: 14 days after application, rating scale 0-100
Method in brief: as §2

[18] = system: barnyardgrass (Echinochloa crusgalli, ECHCG); assay: as above; details: 14 days after application, rating scale 0-100
Method in brief: as §2

[19] = system: green foxtail (Setaria viridis, SETVI); assay: as above; details: 14 days after application, rating scale 0-100
Method in brief: as §2

[20] = system: velvetleaf (Abutilon theophrasti, ABUTH); assay: as above; details: 14 days after application, rating scale 0-100
Method in brief: as §2

[21] = system: redroot pigweed (Amaranthus retroflexus, AMARE); assay: as above; details: 14 days after application, rating scale 0-100
Method in brief: as §2

[22] = system: ivyleaf morningglory (Ipomoea hederacea, IPOHE); assay: as above; details: 14 days after application, rating scale 0-100
Method in brief: as §2

[23] = system: large crabgrass (Digitaria sanguinalis, DIGSA); assay: as above; details: 14 days after application, rating scale 0-100
Method in brief: as §2

[24] = system: soybean (Glycine max L., var. Pella 86, SOY); assay: Pre-emerge greenhouse test, crop damage rating; details: 14 days after application, rating scale 0-100
Method in brief: as §2

[25] = system: upland rice (Oryza sp., var.Tebonnet, RICE); assay: Pre-emerge greenhouse test, crop damage rating; details: 14 days after application, rating scale 0-100
Method in brief: as §2

[26] = system: field corn (Zea mays L., var. Dekalb 535, CORN); assay: Pre-emerge greenhouse test, crop damage rating; details: 14 days after application, rating scale 0-100
Method in brief: as §2

Question: With O=c1n(CCCF)nnn1-c1cc(Oc2ncc(Br)cn2)c(Cl)cc1F [Compound 6-16] as the compound, how does the “SOY crop damage rating (0-100)” value ([1]; 63 g al/ha) read?
Answer: Its value is 40.

Question: What about the “SOY crop damage rating (0-100)” value ([1]; 500 g al/ha) of the same compound?
Answer: Its value is 60.

Question: What about the “CASOB phytotoxicity rating (0-100)” value ([2]; 63 g al/ha) of the same compound?
Answer: Its value is 0.

Question: And the “CASOB phytotoxicity rating (0-100)” value ([2]; 500 g al/ha)?
Answer: The value was 30.

Question: And the “SORHA phytotoxicity rating (0-100)” value ([3]; 63 g al/ha)?
Answer: The value was 0.

Question: And the “SORHA phytotoxicity rating (0-100)” value ([3]; 500 g al/ha)?
Answer: The value was 20.

Question: And the “CHEAL phytotoxicity rating (0-100)” value ([4]; 63 g al/ha)?
Answer: The value was 80.

Question: What about the “CHEAL phytotoxicity rating (0-100)” value ([4]; 500 g al/ha) of the same compound?
Answer: The value was 100.

Question: And the “ECHCG phytotoxicity rating (0-100)” value ([5]; 63 g al/ha)?
Answer: The value was 0.

Question: And the “ECHCG phytotoxicity rating (0-100)” value ([5]; 500 g al/ha)?
Answer: The value was 30.

Question: What about the “SETVI phytotoxicity rating (0-100)” value ([6]; 63 g al/ha) of the same compound?
Answer: Its value is 20.

Question: What about the “SETVI phytotoxicity rating (0-100)” value ([6]; 500 g al/ha) of the same compound?
Answer: Its value is 50.

Question: What about the “ABUTH phytotoxicity rating (0-100)” value ([7]; 63 g al/ha) of the same compound?
Answer: Its value is 100.

Question: What about the “ABUTH phytotoxicity rating (0-100)” value ([7]; 500 g al/ha) of the same compound?
Answer: Its value is 100.

Question: And the “AMARE phytotoxicity rating (0-100)” value ([8]; 63 g al/ha)?
Answer: The value was 70.

Question: What about the “AMARE phytotoxicity rating (0-100)” value ([8]; 500 g al/ha) of the same compound?
Answer: Its value is 100.

Question: What about the “IPOHE phytotoxicity rating (0-100)” value ([9]; 63 g al/ha) of the same compound?
Answer: Its value is 95.

Question: And the “IPOHE phytotoxicity rating (0-100)” value ([9]; 500 g al/ha)?
Answer: Its value is 95.

Question: And the “DIGSA phytotoxicity rating (0-100)” value ([10]; 63 g al/ha)?
Answer: Its value is 0.

Question: And the “DIGSA phytotoxicity rating (0-100)” value ([10]; 500 g al/ha)?
Answer: The value was 0.

Question: What about the “AMBEL phytotoxicity rating (0-100)” value ([11]; 63 g al/ha) of the same compound?
Answer: The value was 15.

Question: And the “AMBEL phytotoxicity rating (0-100)” value ([11]; 500 g al/ha)?
Answer: The value was 20.

Question: What about the “RICE crop damage rating (0-100)” value ([12]; 63 g al/ha) of the same compound?
Answer: Its value is 30.

Question: What about the “RICE crop damage rating (0-100)” value ([12]; 500 g al/ha) of the same compound?
Answer: Its value is 40.

Question: What about the “CORN crop damage rating (0-100)” value ([13]; 63 g al/ha) of the same compound?
Answer: Its value is 10.

Question: And the “CORN crop damage rating (0-100)” value ([13]; 500 g al/ha)?
Answer: The value was 20.

Question: And the “phytotoxicity rating CASOB” value ([14]; 125 g ai/ha)?
Answer: The value was 50.

Question: And the “phytotoxicity rating CASOB” value ([14]; 500 g ai/ha)?
Answer: The value was 30.

Question: What about the “phytotoxicity rating AMBEL” value ([15]; 125 g ai/ha) of the same compound?
Answer: The value was 0.

Question: And the “phytotoxicity rating AMBEL” value ([15]; 500 g ai/ha)?
Answer: The value was 70.

Question: What about the “phytotoxicity rating SORHA” value ([16]; 125 g ai/ha) of the same compound?
Answer: Its value is 40.

Question: And the “phytotoxicity rating SORHA” value ([16]; 500 g ai/ha)?
Answer: The value was 80.

Question: What about the “phytotoxicity rating CHEAL” value ([17]; 125 g ai/ha) of the same compound?
Answer: The value was 100.

Question: What about the “phytotoxicity rating CHEAL” value ([17]; 500 g ai/ha) of the same compound?
Answer: The value was 100.

Question: What about the “phytotoxicity rating ECHCG” value ([18]; 125 g ai/ha) of the same compound?
Answer: Its value is 0.

Question: What about the “phytotoxicity rating ECHCG” value ([18]; 500 g ai/ha) of the same compound?
Answer: The value was 90.

Question: What about the “phytotoxicity rating SETVI” value ([19]; 125 g ai/ha) of the same compound?
Answer: The value was 80.

Question: What about the “phytotoxicity rating SETVI” value ([19]; 500 g ai/ha) of the same compound?
Answer: Its value is 100.

Question: And the “phytotoxicity rating ABUTH” value ([20]; 125 g ai/ha)?
Answer: Its value is 100.

Question: And the “phytotoxicity rating ABUTH” value ([20]; 500 g ai/ha)?
Answer: The value was 100.

Question: And the “phytotoxicity rating AMARE” value ([21]; 125 g ai/ha)?
Answer: The value was 100.

Question: What about the “phytotoxicity rating AMARE” value ([21]; 500 g ai/ha) of the same compound?
Answer: The value was 100.

Question: What about the “phytotoxicity rating IPOHE” value ([22]; 125 g ai/ha) of the same compound?
Answer: Its value is 50.

Question: And the “phytotoxicity rating IPOHE” value ([22]; 500 g ai/ha)?
Answer: Its value is 30.

Question: And the “phytotoxicity rating DIGSA” value ([23]; 125 g ai/ha)?
Answer: The value was 80.

Question: What about the “phytotoxicity rating DIGSA” value ([23]; 500 g ai/ha) of the same compound?
Answer: The value was 100.

Question: And the “crop damage rating SOY” value ([24]; 125 g ai/ha)?
Answer: Its value is 0.

Question: And the “crop damage rating SOY” value ([24]; 500 g ai/ha)?
Answer: The value was 10.

Question: What about the “crop damage rating RICE” value ([25]; 125 g ai/ha) of the same compound?
Answer: The value was 0.

Question: And the “crop damage rating RICE” value ([25]; 500 g ai/ha)?
Answer: Its value is 50.

Question: And the “crop damage rating CORN” value ([26]; 125 g ai/ha)?
Answer: The value was 0.

Question: And the “crop damage rating CORN” value ([26]; 500 g ai/ha)?
Answer: The value was 15.
